PMC5503536, “Development of [^11C]vemurafenib employing a carbon-11 carbonylative Stille coupling and preliminary evaluation in mice bearing melanoma tumor xenografts” (Oncotarget, 2017)

Legend:
[1] = test system: Colo829 (BRAF^V600E) xenografts; experiment: Ex vivo biodistribution, Colo829 xenograft bearing mice; format: in vivo, athymic nu/nu mice; settings: 60 min p.i.
Procedure: (§1) To evaluate the in vivo tumor targeting potential an ex vivo biodistribution study was performed in mice bearing the aforementioned melanoma xenografts. Tumor bearing mice were injected with 20–25 MBq of [^11C]vemurafenib (corresponding to 0.36–0.45 nmol of vemurafenib) and sacrificed 60 minutes post injection. Subsequently organs of interest were excised and counted for activity.
(§2) Nude mice (Athymic nu/nu, Harlan, Horst, The Netherlands) bearing two tumors (obtained by injection of MeWo or Colo829 cells, 2*10^6 per site) of the same xenograft line on their left and right flank, received an injection of 25 MBq [^11C]vemurafenib (corresponding to 0.45 nmol of vemurafenib) via the ocular plexus. The mice were sacrificed and dissected at 60 min. post-injection. Blood, urine, skin, left tumor, right tumor, muscle, heart, colon, lung, liver, kidney and brain were collected, weighed and counted for radioactivity in a gamma counter (Wallac 1210 Compugamma, PerkinElmer, Waltham, MA, USA). Biodistribution data are expressed as percentage of injected dose per gram (%ID/g) of tissue for each organ.

[2] = Ex vivo biodistribution, statements made for both xenograft lines; format: in vivo, athymic nu/nu mice
Procedure: as §1, §2

[3] = Plasma metabolite analysis (in vivo stability); set-up: species or system athymic nu/nu mice; settings: for Parent (%): plasma, i.v., non-tumor bearing mice
Procedure: The cartridge was washed with 5 mL of H2O to collect polar radioactive metabolites.

[4] = test system: MeWo (BRAF^wt) xenografts; experiment: Ex vivo biodistribution, MeWo xenograft bearing mice; format: in vivo, athymic nu/nu mice; settings: 60 min p.i.
Procedure: as §1, §2

[5] = test system: MeWo xenograft tumor sections; experiment: Autoradiography on MeWo xenograft sections; format: binding; settings: co-incubation with unmodified vemurafenib 100 μM, tracer only = 100%
Procedure: (§3) To determine the binding potential of [^11C]vemurafenib to tumor tissue expressing BRAF^wt or BRAF^V600E, autoradiography studies on xenograft sections and in vitro cellular uptake studies were performed. Sections of tumor xenografts derived from the aforementioned cell lines were incubated with [^11C]vemurafenib.
(§4) Colo829 and MeWo xenograft sections (10 μm thickness) were pre-treated three times with 5 mM Tris-HCl buffer (pH 7.4) for 5 min.. Sections were dried under a gentle air flow before incubation for 30 min. with [^11C]vemurafenib and the following conditions: (A) 5 mM Tris-HCl, pH 7.4; (B) 5 mM Tris-HCl, pH 7.4 and isotopically unmodified vemurafenib at 100 μM (n = 4 for each incubation condition). Washing was performed using Tris-HCl (3×) followed by dipping in ice cold water. After drying in an air stream, tumor sections were exposed to a phosphor-imaging screen for 15 min. Data was quantified as average signal intensity per surface area and were represented relative to the tracer only (A) conditions, which was set at 100%. Error bars indicate standard deviations. Quantification of binding was performed using ImageQuantTL v8.1.0.0 (GE Healthcare, Buckinghamshire, UK) by drawing regions of interest around the full tumor sections.

MeWo cells = experiment: In vitro cell uptake, MeWo; format: cell-based
Procedure: (§5) To determine binding of [^11C]vemurafenib in vitro to intact tumor cells a cell uptake study was performed by incubation of tumor cells in suspension with [^11C]vemurafenib, followed by removal of the supernatant and washing of the cells with PBS (phosphate buffered saline). […] While in vitro experiments can be of great value to predict tracer target binding, the experiments exclude many of the factors observed in vivo, for PET-tracer validation. Therefore in vivo experiments are of the utmost importance for PET-tracer validation. […]
(§6) Colo829 or MeWo cells (1*10^6) suspended in growth medium were incubated in triplicate in centrifuge tubes at 37°C with 1 MBq of [^11C]vemurafenib (corresponding to 0.02 nmol of vemurafenib) for 30 min. […] All fractions (cells, supernatant and PBS) were counted for radioactivity using a gamma counter (Wallac 1210 Compugamma, PerkinElmer, Waltham, MA, USA) and the cell bound/internalized percentage of [^11C]vemurafenib was determined as the fraction of activity in the cell pellet divided by the total activity (cells, supernatant and PBS) corrected for background (medium only) and vehicle treated conditions.

[6] = test system: Colo829 xenograft tumor sections; experiment: Autoradiography on Colo829 xenograft sections; format: binding; settings: co-incubation with unmodified vemurafenib 100 μM, tracer only = 100%
Procedure: as §3, §4

Colo829 cells = experiment: In vitro cell uptake, Colo829; format: cell-based
Procedure: as §5, §6

BRAF^wt cells = test system: BRAF^wt cells; set-up: method as in PMID 20149136; settings: cited from earlier work
[7] = set-up: method as in PMID 23060265; settings: phase I trial with 32 patients; cited from earlier work
BRAF^V600E cells = test system: BRAF^V600E cells; set-up: method as in PMID 20149136; settings: cited from earlier work
P-gp = settings: cited from earlier work
MeWo (BRAF^wt) cells = experiment: Cell titer blue cell viability assay, MeWo; format: cell-based; settings: 120 h incubation, CellTiter-Blue
Procedure: (§7) Having a reliable synthesis route to obtain [^11C]vemurafenib, cell lines had to be selected to evaluate the tumor targeting potential of [^11C]vemurafenib. Two melanoma cell lines were selected based on reported mutational status of BRAF: Colo829 (BRAF^V600E) and MeWo (BRAF^wt). Both cell lines were analyzed by Fluorescence Activated Cell Sorting (FACS) using a BRAF antibody (recognizing both wild-type and BRAF^V600E) and a BRAF^V600E selective antibody for assessment of target expression (Figure 2A/2B). […] Furthermore, both the cells as well as the xenografts derived from the cell lines were sequenced to confirm the expression of BRAF and the mutational status thereof. […] (V600E) and MeWo cells and xenografts were wild-type. […] So while the BRAF^V600E kinase is sensitive to vemurafenib treatment, it appears that a certain level of mutated protein expression is required for this sensitivity, as both cell lines expressed the mutation to an extent, as determined by FACS. In contrast sequencing only detected the V600E mutation in the Colo829, indicative of higher expression. […]
(§8) Vemurafenib stock solutions of 1 mM in DMSO were prepared and diluted with PBS to a concentration of 10 μM (1% DMSO). […] Finally the fluorescence was measured using a TriStar^2 LB942 plate reader (Berthold Technologies, Bad Wildbad, Germany). […]

[8] = set-up: method as in PMID 23060265; settings: phase III, vs patients treated with dacarbazine; cited from earlier work
BCRP = settings: cited from earlier work
[9] = test system: Colo829 (BRAF^V600E) cells; experiment: Cell titer blue cell viability assay, Colo829; format: cell-based; settings: Homo sapiens, COLO-829
Procedure: as §7, §8

SMILES: CCCS(=O)(=O)Nc1ccc(F)c([11C](=O)c2c[nH]c3ncc(-c4ccc(Cl)cc4)cc23)c1F [[^11C]vemurafenib]
- Tumor-to-blood ratio ([1]; Colo829 (BRAF^V600E)): 0.27 ± 0.06
- Tumor-to-muscle ratio ([1]; Colo829 (BRAF^V600E)): 0.78 ± 0.18
- Tumor-to-skin ratio ([1]; Colo829 (BRAF^V600E)): 0.90 ± 0.19
- Tumor uptake ([1]; Colo829 tumors, 20–25 MBq): 0.87 ± 0.14 ID/g
- blood levels ([2]; after 60 minutes, xenograft bearing mice): 2–3 %ID/g
- tumor-to-tissue ratios (muscle, blood, skin), all cases ([2]; both xenograft lines, 60 min p.i.): ≤ 1
- intact tracer in plasma (stability) ([3]; 45 minutes after injection): > 95%
- Parent (%) ([3]; 15 min p.i.): 97.8 ± 1.9%
- Parent (%) ([3]; 45 min p.i.): 95.9 ± 4.4%
- Tumor-to-blood ratio ([4]; MeWo (BRAF^WT)): 0.29 ± 0.19
- Tumor-to-muscle ratio ([4]; MeWo (BRAF^WT)): 0.72 ± 0.21
- Tumor-to-skin ratio ([4]; MeWo (BRAF^WT)): 0.89 ± 0.28
- Tumor uptake ([4]; MeWo tumors, 20–25 MBq): 0.49 ± 0.29 %ID/g
- binding when compared to unblocked conditions [5]: 65.1 ± 3.1%
- cell bound + internalized fraction (MeWo cells; 30 min, 37°C, unblocked): 61.6 ± 8.2%
- cell bound + internalized fraction after pretreatment with unmodified vemurafenib (MeWo cells; blocked): 20.6 ± 0.4%
- binding when compared to unblocked conditions [6]: 51.2 ± 11.2%
- cell bound + internalized fraction (Colo829 cells; 30 min, 37°C, unblocked): 74.3 ± 1.5%
- cell bound + internalized fraction after pretreatment with unmodified vemurafenib (Colo829 cells; blocked): 17.0 ± 2.3%

SMILES: CCCS(=O)(=O)Nc1ccc(F)c(C(=O)c2c[nH]c3ncc(-c4ccc(Cl)cc4)cc23)c1F [vemurafenib, Vemurafenib]
- effect on ERK1/2 and MEK phosphorylation (BRAF^wt cells): rapid phosphorylation of ERK1/2 and MEK
- unconfirmed overall response rate [7]: 81%
- effect on ERK1/2 phosphorylation (BRAF^V600E cells): abolished ERK1/2 phosphorylation
- substrate for ABC-cassette efflux transporter P-gp (P-gp): substrate
- IC50, cell viability (MeWo (BRAF^wt) cells): no IC50 was observed
- reduction in the risk of death [8]: 63%
- substrate for ABC-cassette efflux transporter BCRP (BCRP): substrate
- IC50 ([9]; Colo829 (BRAF^V600E), 120 h incubation, CellTiter-Blue): 0.13 µM
- EC50 ([9]; printed in the picture beside the fitted curve, apparently Colo829, read-out: EC50, cell viability curve (Figure 2C)): 0.13 µM
